Experimental data from US10173999B2, “Cyclic amine derivative and pharmaceutical use thereof” (Toray Industries, Inc., priority 2015, dated 2019).
Entries after “also recorded” stand apart in the source; their conditions may differ. Structures can show the parent of a compound that is named as a salt.

What was measured:
[1] = Stability test in dog liver microsomes; format: in vitro ADME; details: pH 7.4; dog liver microsomes 0.5 mg/mL, test compound 2 μmol/L, 37° C., 0-30 min; read-out: Hepatic intrinsic clearance, Dog
Method: (§1) Experiment was performed using the compound of Example 11, Comparative Example 1 or Comparative Example 6 as a test compound and human liver microsomes (from Xenotech), monkey liver microsomes (from Xenotech), dog liver microsomes (from Xenotech) or mouse liver microsomes (from Xenotech) as the liver microsomes.
(§2) The reagents to be used in the stability test in liver microsomes were prepared as follows. A D-glucose 6-phosphate disodium salt (hereinafter referred to as G6P) was dissolved with distilled water to prepare an aqueous solution of G6P (100 mmol/L). Glucose 6-phosphate dehydrogenase (1000 units) from Yeast (hereinafter referred to as G6PDH) was dissolved with distilled water (5 mL) to prepare an aqueous solution of G6PDH (200 units/mL). MgCl2 was dissolved with distilled water to prepare an aqueous solution of MgCl2 (100 mmol/L). […]
(§3) With respect to the chromatogram of each well obtained by LC/MS analysis or LC/MS/MS analysis, the test compound residual ratio (%) at each reaction time t (min) was calculated based on the peak area at the reaction time of 0 minute as 100%. […]

[2] = Stability test in mouse liver microsomes; format: in vitro ADME; details: pH 7.4; mouse liver microsomes 0.5 mg/mL, test compound 2 μmol/L, 37° C., 0-30 min; read-out: Hepatic intrinsic clearance, Mouse
Method: as §1, §2, §3

[3] = tested on: human aortic smooth muscle cells (T/G HA-VSMG); experiment: Inducibility of cytoplasmic vacuolation in human aortic smooth muscle cells; format: cell-based; details: Concentration: 1.0 mmol/L
Method: As a test compound, the compound of Example 3, 9, 11, 12 or compounds of Comparative Examples 2 to 6 were used. Canine aortic smooth muscle cells (Canine Aortic Smooth Muscle Cells, supply source: Toyobo Co., Ltd.) or human aortic smooth muscle cells of (T/G HA-VSMG, supply source: ATCC) were treated with a test compound (1.0 or 1.2 mmol/L in concentration) for 24 hours or 2 weeks. The cells were stained with HE, immunohistochemically for LAMP-2 or toluidine blue, and thereafter the presence or absence of cytoplasmic vacuolation was determined by using an optical microscope.

Cr1: CD (SD) rats = experiment: Evaluation of safety in rat, two-week oral administration test; format: in vivo; details: oral
Method: As a test compound, the compound of Example 11 or Comparative Example 2 was used. The compound of Example 11 or Comparative Example 2 was administered orally to Cr1: CD (SD) rats (7 weeks old, female and male; from Charles River Laboratories, Inc.), for 2 weeks. Clinical observation, body weight measurement, food intake measurement, ophthalmologic examination (the compound of Example 11, alone), hematological examination, blood chemistry examination, urinalysis, bone marrow examination, pathological anatomical examination, organ weight measurement, histopathological examination and immunotoxicity test were carried out. In addition, toxicokinetics (TK) measurement was carried out on Day 1 and Day 14 after administration. It was confirmed that each test compound was exposed. The administration dose of a test compound was specified as 0, 250, 500, 1000 mg/kg/day and administration volume was specified as 10 mL/kg. As an administration solvent, phosphate-buffered saline was used for the compound of Example 11 and distilled water was used for the compound of Comparative Example 2.

[4] = Stability test in human liver microsomes; format: in vitro ADME; details: pH 7.4; human liver microsomes 0.5 mg/mL, test compound 2 μmol/L, 37° C., 0-30 min; read-out: Hepatic intrinsic clearance, Human
Method: as §1, §2, §3

| SMILES | microsomal CLint at 2 μmol/L [1] | microsomal CLint at 2 μmol/L [2] | Inducibility of cytoplasmic vacuolation ([3]; Treatment time: 2 weeks) | Inducibility of cytoplasmic vacuolation ([3]; Treatment time: 24 hours) | no observed adverse effect level (Cr1: CD (SD) rats; 2 weeks) | findings in examination items (Cr1: CD (SD) rats; up to 1000 mg/kg/day for 2 weeks) | microsomal CLint at 2 μmol/L [4] |
| --- | --- | --- | --- | --- | --- | --- | --- |
| CC(C)n1ccnc1CCC(=O)N1CCC(N(C)C)CC1 [Comparative Example 6, 1-(4-(dimethylamino)piperidin-1-yl)-3-(1-isopropyl-1H-imidazol-2-yl)propan-1-one hydrochloride] | 6 µL/min/mg | – | – | – | – | – | – |
| CN(C)C1CCN(C(=O)C[C@H](O)c2nccn2C)CC1 [Example 11, (S)-1-(4-(dimethylamino)piperidin-1-yl)-3-hydroxy-3-(1-methyl-1H-imidazol-2-yl)propan-1-one] | – | 3 µL/min/mg | not observed; also recorded: Absent | Absent | ≥ 1000 mg/kg/day | abnormality was not observed | – |
| CN(C)C1CCN(C(=O)CCc2nccn2C)CC1 [Comparative Example 1, 1-(4-(dimethylamino)piperidin-1-yl)-3-(1-methyl-1H-imidazol-2-yl)propan-1-one hydrochloride] | – | 4 µL/min/mg | – | – | – | – | 1 µL/min/mg |
